Data: US6900210B2, “Pyridinyl, pyrimidinyl and pyrazinyl amides as potassium channel openers” (Bristol-Myers Squibb Company, priority 2002, dated 2005)

Tests used:
mKCNQ2 channels = biological target: T1, mKCNQ2 channels (Mus musculus, UniProt Q9Z351); experiment: Whole-cell patch-clamp recordings of mKCNQ2 currents; format: cell-based; settings: HEK 293 stable cell line expressing mKCNQ2; for EC50: @ −40 mV, room temperature; for Imax (%): maximal current from Hill-type fit
T1 construct: expressed in transfected cells
Description: Whole-cell patch-clamp recordings were made from an HEK 293 stable cell line expressing mKCNQ2 channels, maintained in culture for 1-2 days. Patch pipettes had initial resistances of 2.5-4 MQ. Currents were recorded with an EPC9 amplifier (HEKA, Lambrecht, Germany) controlled with software (Pulse, HEKA) run on a standard lab PC. Series resistance compensation was used during current recording, and set at 80%. The series resistance (R) and cell capacitance (C) were determined electronically by subtracting the capacitive currents at the onset and offset of a 5 mV voltage step. The cancellation of wholecell capacitive transients was virtually complete in all cells. Analog current signals were low-pass filtered at 2.9 kHz using a four-pole Bessel filter −3 dB) and stored on a local network server computer at a sampling rate of 1.5 kHz. All recordings were performed at room temperature (20-22° C.). The pipette solution contained (mM): KCl, 150; CaCl2, 2.5; EGTA, 5; MgCl2, 1; HEPES, 10; pH to 7.3 with KOH, and Osmolality of 290-300 mOsm. The extracellular solution contained (mM): NaCl, 140; KCl, 2.5; CaCl2, 2.5; MgCl2, 1; glucose, 10; HEPES, 10; pH to 7.3 with NaOH, and Osmolality of 305-310 mOsm
Concentration response data were generated by measuring the difference in the steady-state amplitude of current in the presence of compound at the end of a 600 ms voltage-clamp step from a holding potential of −80 mV. The concentration-response data were fitted with Hill-type equations: I=Imax/(1+EC50/[A]^nH), where I is the steady-state current at a given concentration of agonist [A]; and Imax, EC50 and nH are parameters estimated from the curve fit. In some cases the concentration-response data were fitted with equations consisting of the sum of two Hill-type components. Current-voltage (IN) relationships for agonist-evoked currents were obtained by performing 600 ms voltage steps (−110 mV to +40 mV) in the absence and presence of agonist.

[1] = tested on: nerve injury-induced tactile allodynia; experiment: Chung model of neuropathic pain (Chung surgery and von Frey test); format: in vivo, Sprague Dawley rats; settings: i.v., rat, von Frey thresholds over 90 min, % MPE (Drug AUC) − % MPE (Vehicle AUC)
Description: To test agents for activity against peripheral mononeuropathy nerve injury-induced tactile allodynia, male Sprague Dawley rats (wt. 120-160 g) were surgically prepared with unilateral tight ligation of spinal nerves L5 and L6 following the method of Kim and Chung (Kim S. H., Chung J. M. (1992) Pain, September; 50(3):355-63). After 3-4 weeks recovery, paw withdrawal to light touch was assessed as described by Chaplan et al. (Chaplan S. R., et al., (1994) J. Neurosci Methods, July; 53(1):55-63). In brief, rats are placed in a plastic cage with a wire mesh bottom and allowed to acclimate for 15-30 minutes, until cage exploration and grooming stops. […] After acclimation, baseline von Frey thresholds were assessed for the injured hindpaw at −15 min. […] Following drug administration, von Frey thresholds are measured at 15, 30, 60 and 90 min. Data were analyzed by a 2-way repeated measures analysis of variance followed by Dunnett's test (p<0.05). […]
Reversal of neuropathic pain behavior may be expressed as a percentage (0-100%) of the maximum possible effect, over and above the vehicle effects. […]
For example, a compound which immediately reversed neuropathic pain behavior to normal levels, such that animals only responded to the highest von Frey filament (15 g), and maintained normal levels through out the post-drug testing period (90 min) would be calculated as Δ% MPE=100%.

T1 sequence (Q9Z351 whole entry): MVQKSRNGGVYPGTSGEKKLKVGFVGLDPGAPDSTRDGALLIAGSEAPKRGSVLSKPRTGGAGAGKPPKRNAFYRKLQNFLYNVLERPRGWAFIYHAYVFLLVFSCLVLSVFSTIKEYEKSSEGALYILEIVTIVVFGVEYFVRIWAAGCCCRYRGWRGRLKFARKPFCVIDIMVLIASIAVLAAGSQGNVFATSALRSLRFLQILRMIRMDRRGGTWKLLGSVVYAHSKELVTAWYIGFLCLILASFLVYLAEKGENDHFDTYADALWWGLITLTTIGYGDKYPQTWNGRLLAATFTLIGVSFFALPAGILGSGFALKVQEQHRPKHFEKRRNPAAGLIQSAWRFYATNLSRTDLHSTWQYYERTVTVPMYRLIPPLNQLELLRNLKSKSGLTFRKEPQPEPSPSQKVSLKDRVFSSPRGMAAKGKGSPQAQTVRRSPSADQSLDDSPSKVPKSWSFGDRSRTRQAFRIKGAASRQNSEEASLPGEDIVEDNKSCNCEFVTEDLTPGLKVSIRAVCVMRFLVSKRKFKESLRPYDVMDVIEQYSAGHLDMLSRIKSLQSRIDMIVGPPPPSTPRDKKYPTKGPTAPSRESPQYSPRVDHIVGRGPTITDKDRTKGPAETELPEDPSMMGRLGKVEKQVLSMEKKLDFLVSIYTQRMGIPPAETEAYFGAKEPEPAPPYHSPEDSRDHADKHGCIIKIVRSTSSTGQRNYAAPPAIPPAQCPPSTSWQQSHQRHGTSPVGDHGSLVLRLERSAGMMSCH

| Compound | EC50 (mKCNQ2 channels) [µM] | Imax (%) (mKCNQ2 channels) | AUC (Δ % MPE) ([1]; 10 mg/kg) | AUC (Δ % MPE) ([1]; 100 mg/kg) |
| --- | --- | --- | --- | --- |
| C[C@H](NC(=O)/C=C/c1cc(F)ccc1F)c1cccc(Oc2ccccn2)c1 [Example 9, (S)-3-(2,5-Difluoro-phenyl)-N-{1-[3-(pyridin-2-yl-oxy)-phenyl]-ethyl}-acryl-amide] | 0.0012 | 200 | – | – |
| C[C@H](NC(=O)/C=C/c1ccccc1F)c1cccc(Oc2cccnc2)c1 [Example 15, (S)-3-(2-Fluoro-phenyl)-N-{1-[3-(py-ridin-3-yloxy)-phen-yl]-ethyl}-acrylamide] | 0.198 | 812 | 47 (10 mg/kg, i.v.) Δ % MPE | – |
| C[C@H](NC(=O)/C=C/c1cc(F)ccc1F)c1cccc(Oc2ccncc2)c1 [Example 45, (S)-3-(2,5-Difluoro-phenyl)-N-{1-[3-(pyridin-4-yl-oxy)-phenyl]-ethyl}-acryl-amide] | 0.11 | 784 | – | – |
| NCC1(CC(=O)O)CCCCC1 [Gabapentin, gabapentin, reference compound] | – | – | – | 50 (100 mg/kg, i.v.) Δ % MPE |
| (S)-4-Phenyl)-N-[1-(3-py- ridin-3-yl-phenyl)-eth- yl]-butyramide [Example 25] | 0.001 | 172 | – | – |
